Data from patent US20110256121A1, “METHODS AND KITS FOR DIAGNOSING OR MONITORING AUTOIMMUNE AND CHRONIC INFLAMMATORY DISEASES” (THE REGENTS OF THE UNIVERSITY OF MICHIGAN, priority 2008, published 2011).

Test system: KIR2DL2 promoter
Assay: KIR2DL2 promoter reporter construct assay in T cells
Assay type: cell-based, human
Protocol: Reporter construct assays. Amplified KIR promoter fragments were subcloned into the EcoRI site of the promoterless pmaxFP-Yellow-PRL vector (Amaxa GmbH). Plasmids were purified using QIAGEN EndoFree Plasmid Kits (QIAGEN), and 2 μg of DNA transfected into untreated or 5-azaC treated human T cells using the human T cell nucleofector kit (Amaxa GmbH) and the manufacturer's protocol. Controls included cotransfection with pmaxGFP (Amaxa GmbH) and transfection with the promoterless reporter vector. Fluorescence was measured by flow cytometry. Site directed mutagenesis. Mutations were introduced into the same pmaxFP-Yellow-PRL KIR2DL2 and KIR2DL4 promoter constructs using the QuickChange Multi Site-Directed Mutagenesis Kit (Stratagene, La Jolla, Calif.). The changes include a […]→[…] mutation at −78→−71 in the Sp1 site, a CCC→ACA mutation at −61→−59 in the Ets1 site, or both, in the KIR2DL2 promoter, and a TTT→GGG mutation at −73→−71 in the Ets1 site, a CCC→ACA mutation at −61→−59 in the Ets1 site, or both, in the KIR2DL4 promoter. A separate G→A mutation in the AML site was also introduced into both promoters at −98 (16; 17). The constructs were transfected in to PHA stimulated, 5-azaC treated T cells as above. Controls included transfection with pmaxGFP.
Effects of 5-azaC on KIR transcriptional activator-DNA interactions. […]

For `Nc1ncn([C@@H]2O[C@H](CO)[C@@H](O)[C@H]2O)c(=O)n1` [5-azaC, 5-azacytidine], the “increase of KIR2DL2 promoter function” value (5-azaC treated vs untreated T cells, FIG. 29b, p<0.005) was 3-4 fold and the “increase of expression of the unmodified KIR2DL2 construct” value (relative to untreated T cells, FIG. 29c) was roughly 2 fold.
